According to US9376425B2, “Heterocyclic compounds as MDM2 inhibitors for the treatment of cancer” (AMGEN INC., priority 2011, dated 2016):

Target: T1, human MDM2 (GST-hMDM2 1-188), interaction with biotinylated-p53 (1-83) (Homo sapiens, UniProt Q00987)
T1 construct: Amino acid residues 1-188 of human MDM2 were expressed; made in house; host or cells: Escherichia coli
Experiment: improved HTRF assay (HTRF2 assay), inhibition of HDM2-p53 interaction
Assay type: binding
Conditions: 0.2 nM GST-hMDM2, 0.5 nM biotinylated-p53, 100 mM KF
Summary of the method: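 Time-resolved fluorescence (HTRF) read after >4 h equilibration with SA-XLent/anti-GST cryptate/KF detection reagents. Reaction: compound plus GST-hMDM2 for 20 min at room temperature, then E. coli-expressed biotinylated p53 residues 1-83 for 60 min, 2% DMSO final. Inhibition expressed versus nutlin-3.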

T1 sequence (Q00987 1-188): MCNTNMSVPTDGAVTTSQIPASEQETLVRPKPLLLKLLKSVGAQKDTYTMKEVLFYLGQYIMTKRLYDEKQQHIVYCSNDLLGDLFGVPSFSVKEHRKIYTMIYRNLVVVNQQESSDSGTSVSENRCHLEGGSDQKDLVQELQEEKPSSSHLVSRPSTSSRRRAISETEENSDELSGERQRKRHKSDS

Question: With `O=C(O)C[C@H]1O[C@H](c2cccc(Cl)c2)[C@@H](c2ccc(Cl)cc2)N([C@H](CN(c2ccccc2F)S(=O)(=O)C2CC2)C2CC2)C1=O` (single isomer, unassigned) [Example 159, 2-((2R,5R,6R)-6-(3-chlorophenyl)-5-(4-chlorophenyl)-4-((S)-1-cyclopropyl-2-(N-(2-fluorophenyl)cyclopropanesulfonamido)ethyl)-3-oxomorpholin-2-yl)acetic acid or 2-((2S,5R,6R)-6-(3-chlorophenyl)-5-(4-chlorophenyl)-4-((S)-1-cyclopropyl-2-(N-(2-fluorophenyl)cyclopropanesulfonamido)ethyl)-3-oxomorpholin-2-yl)acetic acid] as the molecule, how does the IC50 read?
Answer: < 1 nM

Question: Which IC50 does the source give for `CC[C@@H](CS(=O)(=O)C(C)(C)CC)N1C(=O)[C@H](CC(=O)O)O[C@H](c2cccc(Cl)c2)[C@H]1c1ccc(Cl)cc1` (single isomer, unassigned) [Example 123, 2-((2S,5R,6R)-6-(3-Chlorophenyl)-5-(4-chlorophenyl)-3-oxo-4-((S)-1-(tert-pentylsulfonyl)butan-2-yl)morpholin-2-yl)acetic acid or 2-((2R,5R,6R)-6-(3-Chlorophenyl)-5-(4-chlorophenyl)-3-oxo-4-((S)-1-(tert-pentylsulfonyl)butan-2-yl)morpholin-2-yl)acetic acid] here?
Answer: 1 nM

Question: With “Methyl 2-((2R,5R,6R)-6-(3-chlorophenyl)-5-(4-chlorophenyl)-4-((S)-1-((2-(dimethylamino)ethyl)sulfonyl)butan-2-yl)-3-oxomorpholin-2-yl)acetate and methyl 2-((2S,5R,6R)-6-(3-chlorophenyl)-5-(4-chlorophenyl)-4-((S)-1-((2-(dimethylamino)ethyl)sulfonyl)butan-2-yl)-3-oxomorpholin-2-yl)acetate [Example 246]” as the molecule, how does the IC50 read?
Answer: 6 nM

Question: Which IC50 does the source give for `CC[C@@H]([C@H](C)S(=O)(=O)C(C)C)N1C(=O)[C@@H](CC(=O)O)O[C@H](c2cccc(Cl)c2)[C@H]1c1ccc(Cl)cc1` (single isomer, unassigned) [Example 414] here?
Answer: 1 nM

Question: For `CNC(=O)C[C@H]1O[C@H](c2cccc(Cl)c2)[C@@H](c2ccc(Cl)cc2)N([C@@H](C)CS(=O)(=O)C(C)(C)C)C1=O` (single isomer, unassigned) [Example 228, 2-((2R,5R,6R)-4-((S)-1-(tert-butylsulfonyl)propan-2-yl)-6-(3-chlorophenyl)-5-(4-chlorophenyl)-3-oxomorpholin-2-yl)-N-methylacetamide or 2-((2S,5R,6R)-4-((S)-1-(tert-butylsulfonyl)propan-2-yl)-6-(3-chlorophenyl)-5-(4-chlorophenyl)-3-oxomorpholin-2-yl)-N-methylacetamide], which IC50 is on record?
Answer: 14 nM

Question: How did the IC50 turn out when `CC(C)(C)S(=O)(=O)C[C@H](C1CC1)N1C(=O)[C@@H](CC(=O)O)O[C@H](c2ccc(C#N)c(Cl)c2)[C@H]1c1ccc(Cl)cc1` (single isomer, unassigned) [Example 324, 2-((2R,5R,6R)-4-((S)-2-(tert-Butylsulfonyl)-1-cyclopropylethyl)-6-(3-chloro-4-cyanophenyl)-5-(4-chlorophenyl)-3-oxomorpholin-2-yl)acetic acid or 2-((2S,5R,6R)-4-((S)-2-(tert-butylsulfonyl)-1-cyclopropylethyl)-6-(3-chloro-4-cyanophenyl)-5-(4-chlorophenyl)-3-oxomorpholin-2-yl)acetic acid] was run?
Answer: 7 nM

Question: Which IC50 does the source give for `CC[C@@H](CS(=O)(=O)N1CCC[C@H]1C)N1C(=O)[C@@H](CC(=O)O)O[C@H](c2cccc(Cl)c2)[C@H]1c1ccc(Cl)cc1` (single isomer, unassigned) [Example 210, 2-((2R,5R,6R)-6-(3-chlorophenyl)-5-(4-chlorophenyl)-4-((S)-1-(((R)-2-methylpyrrolidin-1-yl)sulfonyl)butan-2-yl)-3-oxomorpholin-2-yl)acetic acid or 2-((2S,5R,6R)-6-(3-chlorophenyl)-5-(4-chlorophenyl)-4-((S)-1-(((R)-2-methylpyrrolidin-1-yl)sulfonyl)butan-2-yl)-3-oxomorpholin-2-yl)acetic acid] here?
Answer: 1 nM

Question: `CC1(C)CCCN1S(=O)(=O)C[C@H](C1CC1)N1C(=O)[C@@H](CC(=O)O)O[C@H](c2cccc(Cl)c2)[C@H]1c1ccc(Cl)cc1` (single isomer, unassigned) [Example 306, 2-((2R,5R,6R)-6-(3-Chlorophenyl)-5-(4-chlorophenyl)-4-((S)-1-cyclopropyl-2-((2,2-dimethylpyrrolidin-1-yl)sulfonyl)ethyl)-3-oxomorpholin-2-yl)acetic acid or 2-((2R,5R,6R)-6-(3-chlorophenyl)-5-(4-chlorophenyl)-4-((S)-1-cyclopropyl-2-((2,2-dimethylpyrrolidin-1-yl)sulfonyl)ethyl)-3-oxomorpholin-2-yl)acetic acid] was tested. Which IC50 did it give?
Answer: < 1 nM

Question: Which IC50 does the source give for `CC[C@@H](CS(=O)(=O)C(C)(C)C)N1C(=O)[C@@H](CC(N)=O)O[C@H](c2cccc(Cl)c2)[C@H]1c1ccc(Cl)cc1` (single isomer, unassigned) [Example 261, 2-((2R,5R,6R)-4-((S)-1-(tert-butylsulfonyl)butan-2-yl)-6-(3-chlorophenyl)-5-(4-chlorophenyl)-3-oxomorpholin-2-yl)acetamide or 2-((2S,5R,6R)-4-((S)-1-(tert-butylsulfonyl)butan-2-yl)-6-(3-chlorophenyl)-5-(4-chlorophenyl)-3-oxomorpholin-2-yl)acetamide] here?
Answer: 6 nM

Question: For `CC[C@@H](CN(c1ccccc1F)S(=O)(=O)C1CC1)N1C(=O)[C@@H](CCC(=O)O)O[C@H](c2cccc(Cl)c2)[C@H]1c1ccc(Cl)cc1` (single isomer, unassigned) [Example 262, 3-((2R,5R,6R)-6-(3-chlorophenyl)-5-(4-chlorophenyl)-4-((S)-1-(N-(2-fluorophenyl)cyclopropanesulfonamido)butan-2-yl)-3-oxomorpholin-2-yl)propanoic acid or 3-((2S,5R,6R)-6-(3-chlorophenyl)-5-(4-chlorophenyl)-4-((S)-1-(N-(2-fluorophenyl)cyclopropanesulfonamido)butan-2-yl)-3-oxomorpholin-2-yl)propanoic acid], which IC50 is on record?
Answer: 2 nM

Question: Which IC50 does the source give for `CC[C@@H](CS(=O)(=O)C(C)(C)C)N1C(=O)[C@@H](CCOC)O[C@H](c2cccc(Cl)c2)[C@H]1c1ccc(Cl)cc1` [Example 153, (2R,5R,6R)-4-((S)-1-(tert-butylsulfonyl)butan-2-yl)-6-(3-chlorophenyl)-5-(4-chlorophenyl)-2-(2-methoxyethyl)morpholin-3-one] here?
Answer: 59 nM

Question: How did the IC50 turn out when `CC[C@@H](CS(=O)(=O)C1CC1)N1C(=O)[C@@H](CC(=O)O)O[C@H](c2cccc(Cl)c2)[C@H]1c1ccc(Cl)cc1` (single isomer, unassigned) [Example 213, 2-((2R,5R,6R)-6-(3-chlorophenyl)-5-(4-chlorophenyl)-4-((S)-1-(cyclopropylsulfonyl)butan-2-yl)-3-oxomorpholin-2-yl)acetic acid or 2-((2S,5R,6R)-6-(3-chlorophenyl)-5-(4-chlorophenyl)-4-((S)-1-(cyclopropylsulfonyl)butan-2-yl)-3-oxomorpholin-2-yl)acetic acid] was run?
Answer: 5 nM

Question: `CC(C)(O)CS(=O)(=O)C[C@H](C1CC1)N1C(=O)[C@@H](CC(=O)O)O[C@H](c2cccc(Cl)c2)[C@H]1c1ccc(Cl)cc1` (single isomer, unassigned) [Example 288, 2-((2R,5R,6R)-6-(3-Chlorophenyl)-5-(4-chlorophenyl)-4-((S)-1-cyclopropyl-2-((2-hydroxy-2-methylpropyl)sulfonyl)ethyl)-3-oxomorpholin-2-yl)acetic acid or 2-((2S,5R,6R)-6-(3-chlorophenyl)-5-(4-chlorophenyl)-4-((S)-1-cyclopropyl-2-((2-hydroxy-2-methylpropyl)sulfonyl)ethyl)-3-oxomorpholin-2-yl)acetic acid] was tested. Which IC50 did it give?
Answer: < 1 nM

Question: For `CC[C@@H](CN(c1ccccc1F)S(=O)(=O)C1CC1)N1C(=O)[C@@H](CCC(=O)O)O[C@H](c2cccc(Cl)c2)[C@H]1c1ccc(Cl)cc1` (single isomer, unassigned) [Example 263, 3-((2R,5R,6R)-6-(3-chlorophenyl)-5-(4-chlorophenyl)-4-((S)-1-(N-(2-fluorophenyl)cyclopropanesulfonamido)butan-2-yl)-3-oxomorpholin-2-yl)propanoic acid or 3-((2S,5R,6R)-6-(3-chlorophenyl)-5-(4-chlorophenyl)-4-((S)-1-(N-(2-fluorophenyl)cyclopropanesulfonamido)butan-2-yl)-3-oxomorpholin-2-yl)propanoic acid], which IC50 is on record?
Answer: 2 nM

Question: How did the IC50 turn out when `CC(C)[C@@H](CN(c1ccccc1F)S(=O)(=O)C(C)C)N1C(=O)[C@@H](CC(=O)O)O[C@H](c2cccc(Cl)c2)[C@H]1c1ccc(Cl)cc1` (single isomer, unassigned) [Example 199, 2-((2R,5R,6R)-6-(3-chlorophenyl)-5-(4-chlorophenyl)-4-((S)-1-(N-(2-fluorophenyl)propan-2-ylsulfonamido)-3-methylbutan-2-yl)-3-oxomorpholin-2-yl)acetic acid or 2-((2S,5R,6R)-6-(3-chlorophenyl)-5-(4-chlorophenyl)-4-((S)-1-(N-(2-fluorophenyl)propan-2-ylsulfonamido)-3-methylbutan-2-yl)-3-oxomorpholin-2-yl)acetic acid] was run?
Answer: 1 nM

Question: How did the IC50 turn out when `CC(C)(C)S(=O)(=O)C[C@H](C1CC1)N1C(=O)[C@@H](CC(=O)O)O[C@H](c2ccc(C#N)c(Cl)c2)[C@H]1c1ccc(Cl)cc1` (single isomer, unassigned) [Example 325, 2-((2R,5R,6R)-4-((S)-2-(tert-Butylsulfonyl)-1-cyclopropylethyl)-6-(3-chloro-4-cyanophenyl)-5-(4-chlorophenyl)-3-oxomorpholin-2-yl)acetic acid or 2-((2S,5R,6R)-4-((S)-2-(tert-butylsulfonyl)-1-cyclopropylethyl)-6-(3-chloro-4-cyanophenyl)-5-(4-chlorophenyl)-3-oxomorpholin-2-yl)acetic acid] was run?
Answer: 4 nM
